biological target: T1, Poly(A)-specific ribonuclease PARN (Homo sapiens, UniProt O95453); experiment: PARN Activity Assay
T1 sequence (O95453 whole entry): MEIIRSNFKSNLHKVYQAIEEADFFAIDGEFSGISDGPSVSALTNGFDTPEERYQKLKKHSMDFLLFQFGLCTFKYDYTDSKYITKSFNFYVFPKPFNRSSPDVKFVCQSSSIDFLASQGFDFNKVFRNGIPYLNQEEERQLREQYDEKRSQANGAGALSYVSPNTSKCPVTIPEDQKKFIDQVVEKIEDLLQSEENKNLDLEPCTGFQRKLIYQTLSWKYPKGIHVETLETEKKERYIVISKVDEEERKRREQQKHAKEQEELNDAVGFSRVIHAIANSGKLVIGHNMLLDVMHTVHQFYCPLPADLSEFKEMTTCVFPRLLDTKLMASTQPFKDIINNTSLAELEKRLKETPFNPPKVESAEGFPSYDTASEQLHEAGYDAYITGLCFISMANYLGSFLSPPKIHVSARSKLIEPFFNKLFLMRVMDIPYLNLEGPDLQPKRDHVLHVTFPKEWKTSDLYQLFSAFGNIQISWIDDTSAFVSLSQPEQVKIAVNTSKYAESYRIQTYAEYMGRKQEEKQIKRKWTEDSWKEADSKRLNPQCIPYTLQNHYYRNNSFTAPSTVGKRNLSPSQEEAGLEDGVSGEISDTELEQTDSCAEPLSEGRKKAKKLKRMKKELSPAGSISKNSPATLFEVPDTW
Experimental: The enzymatic activity was determined by the methylene blue assay.

Ki	Compound
510 µM	O=C(Nc1ncnc2c1ncn2C1OC(O)C(O)C(F)C1O)c1ccccc1 (stereo not drawn) [Nucleoside, A2]
210 µM	O=C(Nc1ccn(C2OC(CO)C(O)C(F)C2O)c(=O)n1)c1ccccc1 (stereo not drawn) [Nucleoside, A6]
645 µM	Nc1ccn(C2OC(CO)C(O)C(F)C2O)c(=O)n1 (stereo not drawn) [Nucleoside, C6]
